Assay results: patent publication US8318731B2, “Pyrrolopyrimidines” (Janssen Pharmaceutica NV, priority 2007, dated 2012)

Experiments:
PLK4 (h) = target: T1, PLK4 (h) (Homo sapiens, UniProt O00444); assay: PLK-4 human kinase scintillation proximity assay (SPA); format: biochemical; details: 1 μM ATP, 60 minutes at r.t., read-out: PLK4 pIC50 (converted)
T1 sequence (O00444 1-970): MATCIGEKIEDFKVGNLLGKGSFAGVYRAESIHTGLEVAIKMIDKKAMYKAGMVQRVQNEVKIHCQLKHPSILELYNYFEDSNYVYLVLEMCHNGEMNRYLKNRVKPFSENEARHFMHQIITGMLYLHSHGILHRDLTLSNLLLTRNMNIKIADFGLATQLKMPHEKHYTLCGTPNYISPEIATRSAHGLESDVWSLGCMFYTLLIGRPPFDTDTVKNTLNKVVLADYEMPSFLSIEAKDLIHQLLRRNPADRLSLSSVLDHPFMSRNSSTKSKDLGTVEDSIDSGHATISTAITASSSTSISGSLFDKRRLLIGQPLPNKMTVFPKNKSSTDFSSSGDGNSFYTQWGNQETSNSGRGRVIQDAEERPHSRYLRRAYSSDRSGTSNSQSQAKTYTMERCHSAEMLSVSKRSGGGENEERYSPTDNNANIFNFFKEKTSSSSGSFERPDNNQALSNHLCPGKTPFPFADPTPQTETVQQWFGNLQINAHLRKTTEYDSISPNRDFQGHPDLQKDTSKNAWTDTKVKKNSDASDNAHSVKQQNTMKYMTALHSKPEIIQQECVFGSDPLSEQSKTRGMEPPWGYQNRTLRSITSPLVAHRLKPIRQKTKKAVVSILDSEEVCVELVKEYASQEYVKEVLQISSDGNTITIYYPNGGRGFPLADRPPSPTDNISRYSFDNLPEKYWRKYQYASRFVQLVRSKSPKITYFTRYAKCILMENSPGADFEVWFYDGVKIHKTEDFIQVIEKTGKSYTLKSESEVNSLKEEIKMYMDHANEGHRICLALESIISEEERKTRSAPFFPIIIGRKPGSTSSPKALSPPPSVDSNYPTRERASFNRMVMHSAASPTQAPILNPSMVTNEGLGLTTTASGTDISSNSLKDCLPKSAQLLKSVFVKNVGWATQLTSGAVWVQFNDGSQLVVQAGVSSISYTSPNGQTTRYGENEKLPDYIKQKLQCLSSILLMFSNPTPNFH
Description: The in vitro inhibition of a panel of kinases was assessed using either the scintillation proximity assay (SPA) as described by Cook, N. D. et al., Advances in Experimental Medicine and Biology (1991), 36; p. 525-528.
In the SPA technology the activity of the kinase of interest is measured using an appropriate biotinylated substrate that is incubated with the aforementioned kinase protein in the presence of (^33P) radiolabeled ATP. (^33P) Phosphorylation of the substrate is subsequently measured through binding of the phosphorylated substrate to streptavidine coated beads that are based on the scintillant poly(vinyl toluene) (PVT-Beads). The scintillation intensity is detected by imaging on Leadseeker.
All kinases are pre-diluted to a 10× working concentration prior to addition into the assay. The composition of the dilution buffer for each kinase is detailed below.
In a final reaction volume of 30 μl, PLK4 (h) (19 μg/ml) is incubated with 50 mM Hepes pH 8.0, 10 mM MgCl2, 50 mM NaCl, 1 mM NaF, 1 mM DTT, 10 μM of peptide Biotin-RPRGQRDSSYYWE-OH, 1 μM ATP and 2 nM [γ-^33P-ATP] (6.0 μCi/ml). After incubation of 60 minutes at r.t., the reaction is stopped by addition of 40 μL of stop solution containing 8.7 mM EDTA, BSA 0.17%, 0.17% Triton X-100, 1.7 mg/ml SPA beads (GE-healthcare). The plate is centrifuged and read for Scintillation imaging on Leadseeker.

HCT-116 = assay: Cellular proliferation assay (Alamar blue), HCT-116; format: cell-based; details: Homo sapiens; HCT-116 cells; 10% FCS; 72 h with compound; Alamar blue 4 h; read-out: pIC50 HCT-116 (converted)
Description: (§1) Cellular proliferation of these compounds was tested on a panel of different cell lines in the presence of 10% FCS serum (37° C. and 5% (v/v) CO2). In a first step these cells were seeded and incubated for 24 hours in the absence of compound. In the second step the cells were incubated for 72 hours with the compounds to be tested for 72 hours. The viable cell number was finally assessed in a standard Alamar blue cell viability assay.
(§2) The viable cell number was assessed by incubation for either 4 h (HCT-116, H1299) 6 h (U87-MG) or 24 h (A2780, PC3, MDA-MB-231) with Alamar blue (Resazurin 9 μg/ml, K-Ferrocyanide 90 μM, K-Ferricyanide 90 μM) and the converted fluorescent product was quantified on a fluorescent plate readed (544 nm/590 nm). Effect of the compounds is calculated as of on control cells.

H1299 = assay: Cellular proliferation assay (Alamar blue), H1299; format: cell-based; details: Homo sapiens, NCI-H1299, H1299 cells; 10% FCS; 72 h with compound; Alamar blue 4 h; read-out: pIC50 H1299 (converted)
Description: as §1, §2

U87-MG = assay: Cellular proliferation assay (Alamar blue), U87-MG; format: cell-based; details: Homo sapiens, U-87 MG; U87-MG cells; 10% FCS; 72 h with compound; Alamar blue 6 h; read-out: pIC50 U87MG (converted)
Description: as §1, §2

A2780 = assay: Cellular proliferation assay (Alamar blue), A2780; format: cell-based; details: Homo sapiens, A2780, A2780 cells; 10% FCS; 72 h with compound; Alamar blue 24 h; read-out: pIC50 A2780 (converted)
Description: as §1, §2

PC3 = assay: Cellular proliferation assay (Alamar blue), PC3; format: cell-based; details: Homo sapiens, PC-3, PC-3 cells; 10% FCS; 72 h with compound; Alamar blue 24 h; read-out: pIC50 PC-3 (converted)
Description: as §1, §2

MDA-MB-231 = assay: Cellular proliferation assay (Alamar blue), MDA-MB-231; format: cell-based; details: Homo sapiens, MDA-MB-231, MDA-MB-231 cells; 10% FCS; 72 h with compound; Alamar blue 24 h; read-out: pIC50 MDA/MB231 (converted)
Description: as §1, §2

Structure (SMILES)	IC50 (PLK4 (h)) [µM]	IC50 (HCT-116) [µM]	IC50 (H1299) [µM]	IC50 (U87-MG) [µM]	IC50 (A2780) [µM]	IC50 (PC3) [µM]	IC50 (MDA-MB-231) [µM]
CC(C)OCCOc1ccc2cc1OCC(=O)N(C)CCCN(C)Cc1c[nH]c3ncnc(c13)N2 [Compound 131]	0.0501	0.0631	0.1	2	0.0501	7.94	3.16
COc1cc(NC(=O)COc2ccc3cc2OCC(=O)N(C)CCCN(C)Cc2c[nH]c4ncnc(c24)N3)cc(OC)c1OC [Compound 71]	0.0794	2	3.98	2.51	1	6.31	5.01
CN1CCCN(C)C(=O)CCCCCOc2cc(ccc2Cl)Nc2ncnc3[nH]cc(c23)C1 [Compound 19]	0.316	> 10	> 10	> 10	> 10	> 10	> 10
CN1CCCN(C)C(=O)COc2cccc(c2)Nc2ncnc3[nH]cc(c23)C1 [Compound 120]	0.0316	0.398	1	0.794	0.501	1	1
COc1ccc2cc1OCC(=O)N1CCC[C@@H]1CN(C)CCCc1c[nH]c3ncnc(c13)N2 [Compound 38]	> 10	> 10	> 10	> 10	> 10	> 10	> 10
CN1CCCN(C)C(=O)CCCOc2cc(ccc2N2CCOCC2)Nc2ncnc3[nH]cc(c23)C1 [Compound 44]	1.58	> 10	> 10	> 10	> 10	> 10	> 10
CN1CCCN(C)C(=O)CCc2cccc(c2)Nc2ncnc3[nH]cc(c23)C1 [Compound 21]	0.501	1.58	2	2	2	3.98	5.01
COc1cc2cc(c1OC)CCC(=O)N(C)CCCN(C)Cc1c[nH]c3ncnc(c13)N2 [Compound 30]	> 10	> 10	> 10	> 10	> 10	> 10	> 10
COc1ccc2cc1OCC(=O)N(C)CCCN(Cc1ccccc1)Cc1c[nH]c3ncnc(c13)N2 [Compound 61]	0.1	> 10	> 10	> 10	> 10	> 10	> 10
COc1ccc2cc1CN1CCCC(C1)C(=O)N(C)CCCc1c[nH]c3ncnc(c13)N2 (stereo not shown) [Compound 35]	> 10	> 10	> 10	> 10	> 10	> 10	> 10
COc1ccc2cc1OCCCC(=O)N(C)CCN(C)Cc1c[nH]c3ncnc(c13)N2 [Compound 1]	0.126	> 10	> 10	> 10	> 10	> 10	> 10
CN1CCCCN(C)C(=O)COc2cc(ccc2OCC(=O)Nc2ccc(Cl)cc2)Nc2ncnc3[nH]cc(c23)C1 [Compound 133]	0.0631	0.0794	0.2	2.51	0.0631	2.51	3.16
CN1CCN(C)C(=O)CCCOc2cc(ccc2Cl)Nc2ncnc3[nH]cc(c23)C1 [Compound 42]	0.794	> 10	> 10	> 10	> 10	> 10	> 10
CN1CCN(C)C(=O)COc2cccc(c2)Nc2ncnc3[nH]cc(c23)C1 [Compound 58]	0.0501	2.51	5.01	6.31	3.16	7.94	10
COc1ccc2cc1OCC(=O)N(C)CCCNCc1c[nH]c3ncnc(c13)N2 [Compound 65]	0.0794	> 10	> 10	> 10	> 10	> 10	> 10
COc1ccc2cc1OCC(=O)N(C)CCN(C)CCCc1c[nH]c3ncnc(c13)N2 [Compound 60]	1	> 10	> 10	> 10	> 10	> 10	> 10
CN1CCCN(C)C(=O)COc2cc(ccc2OCCCN2CCOCC2)Nc2ncnc3[nH]cc(c23)C1 [Compound 137]	0.398	1.26	3.98	1.58	0.794	3.16	3.16
CN1CCCN(C)C(=O)COc2cc(ccc2Cl)Nc2ncnc3c2c(cn3C)C1 [Compound 146]	0.631	> 10	> 10	> 10	> 10	> 10	> 10
CN1CCCN(C)C(=O)COc2cc(ccc2OCCN2CCCCC2)Nc2ncnc3[nH]cc(c23)C1 [Compound 136]	0.251	2.51	5.01	1.58	1	2.51	3.16
COCCN(CCOc1ccc2cc1OCC(=O)N(C)CCCN(C)Cc1c[nH]c3ncnc(c13)N2)C(C)C [Compound 140]	0.158	1	3.16	1	1	1.58	1.58
CN1CCN(C)C(=O)CCCCOc2cc(ccc2N2CCOCC2)Nc2ncnc3[nH]cc(c23)C1 [Compound 48]	> 10	> 10	> 10	> 10	> 10	> 10	> 3.16
COc1ccc2cc1OCCCCCC(=O)N(C)CCCN(C)Cc1c[nH]c3ncnc(c13)N2 [Compound 18]	0.398	> 10	> 10	> 10	> 10	> 10	> 10
